From PubChem BioAssay AID330 (DTP/NCI, 2004) come the findings set out here.

Molecules are shown by their SMILES. Where “and” joins values, the source holds several entries; their conditions need not be identical. Equal entries are not always repeated. Toxic doses and inconclusive results are not listed.

In the assay the test system is P388 leukemia ip, CD2F1 mice, survival T/C. In words: NCI In Vivo Anticancer Drug Screen. Data for tumor model P388 Leukemia (intraperitoneal) in CD2F1 (CDF1) mice. The conditions noted are these: endpoint: median survival time, higher = longer survival. In outline:
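Mice carrying the transplanted tumor received test compound or vehicle. Survival was recorded in each group, and the value is the treated-group measurement divided by that of the vehicle-treated control group.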

The mark [1] stands for this setting: dose: 100.0 mg/kg/injection, schedule: Q04DX002 (ip), vehicle: saline with Tween-80.
[2] abbreviates: dose: 200.0 mg/kg/injection, schedule: Q04DX002 (ip), vehicle: saline with Tween-80.
Setting [3] is: dose: 400.0 mg/kg/injection, schedule: Q04DX002 (ip), vehicle: saline with Tween-80.
Setting [4] is: dose: 50.0 mg/kg/injection, schedule: Q01DX009 (ip), vehicle: saline with Tween-80.
[5] abbreviates: dose: 100.0 mg/kg/injection, schedule: Q01DX009 (ip), vehicle: saline with Tween-80.
[6] abbreviates: dose: 25.0 mg/kg/injection, schedule: Q04DX002 (ip), vehicle: saline with Tween-80.
The mark [7] stands for this setting: dose: 50.0 mg/kg/injection, schedule: Q04DX002 (ip), vehicle: saline with Tween-80.
Setting [8] is: dose: 60.0 mg/kg/injection, schedule: Q01DX005 (ip), vehicle: saline with Tween-80.
Where [9] appears, read: dose: 120.0 mg/kg/injection, schedule: Q01DX005 (ip), vehicle: saline with Tween-80.
[10] abbreviates: dose: 50.0 mg/kg/injection, schedule: Q01DX009 (ip), vehicle: Klucel (hydroxypropylcellulose) (HPC).
The mark [11] stands for this setting: dose: 200.0 mg/kg/injection, schedule: Q01DX009 (ip), vehicle: saline with Tween-80.
Setting [12] is: dose: 25.0 mg/kg/injection, schedule: Q01DX005 (ip), vehicle: Klucel (hydroxypropylcellulose) (HPC).
Setting [13] is: dose: 50.0 mg/kg/injection, schedule: Q01DX005 (ip), vehicle: Klucel (hydroxypropylcellulose) (HPC).
Where [14] appears, read: dose: 100.0 mg/kg/injection, schedule: Q01DX005 (ip), vehicle: Klucel (hydroxypropylcellulose) (HPC).

`N#CC(C(=O)C(=O)Nc1ccc(Cl)cc1)c1c(Cl)cccc1Cl` (configuration not stated): the T/C was 105 % of control under setting [1], 108 % of control under setting [2] and 97 % of control under setting [3].

On to `CCCCN(N=O)C(C)=O`, for which the T/C under setting [1] is 101 % of control and the T/C under setting [2] was 98 % of control.

`CCC1(O)C(=O)OCc2c1cc1n(c2=O)Cc2cc3cc4c(cc3nc2-1)OCO4` (configuration not stated): the T/C was 177 % of control (dose: 1.0 mg/kg/injection, schedule: Q01DX005 (ip), vehicle: saline with Tween-80) and 86 % of control (dose: 2.0 mg/kg/injection, schedule: Q01DX005 (ip), vehicle: saline with Tween-80).

Consider `O=[N+]([O-])c1ccc(N(CCO)CCO)c2c1no[n+]2[O-]`, for which the T/C reads like this: (dose: 3.12 mg/kg/injection, schedule: Q01DX005 (ip), vehicle: saline with Tween-80) 117 % of control; (dose: 6.25 mg/kg/injection, schedule: Q01DX005 (ip), vehicle: saline with Tween-80) 122 % of control; (dose: 8.0 mg/kg/injection, schedule: Q04DX003 (ip), vehicle: saline) 111 % of control; (dose: 16.0 mg/kg/injection, schedule: Q04DX003 (ip), vehicle: saline) 121 % of control.

For `O=[N+]([O-])c1c[nH]n2c([N+](=O)[O-])cnc12`, the T/C runs as follows: (dose: 6.25 mg/kg/injection, schedule: Q01DX009 (ip), vehicle: other) 91 % of control; (dose: 12.5 mg/kg/injection, schedule: Q01DX009 (ip), vehicle: other) 101 % of control.

In the case of `O=C1CSC(=O)N1c1cccc(C(F)(F)F)c1`, the T/C by setting is: under setting [4], 104 % of control; under setting [5], 97 % of control.

As to `CCCCCCCCCCCCSCN(CC)CC`, the T/C (dose: 25.0 mg/kg/injection, schedule: Q01DX009 (ip), vehicle: saline) was 89 % of control; the T/C (dose: 50.0 mg/kg/injection, schedule: Q01DX009 (ip), vehicle: saline) was 99 % of control and 111 % of control; the T/C (dose: 100.0 mg/kg/injection, schedule: Q01DX009 (ip), vehicle: saline) is 101 % of control and 103 % of control.

`CSC(=S)/N=c1\c(C)cccn1C`: the T/C was 98 % of control under setting [6], 100 % of control under setting [7] and 102 % of control under setting [1].

Turning to `COc1ccc2ccccc2c1C1=CC(c2ccccc2)C(c2cc(C)n(-c3ccccc3)n2)C(=O)N1` (configuration not stated), the T/C by setting is: under setting [1], 101 % of control; under setting [2], 106 % of control.

For `O=C(NC(=S)c1ccc(Cl)cc1)Nc1ccc(Cl)c(Cl)c1`, the T/C (dose: 5.0 mg/kg/injection, schedule: Q01DX009 (ip), vehicle: saline with Tween-80) was 87 % of control; the T/C (dose: 10.0 mg/kg/injection, schedule: Q01DX009 (ip), vehicle: saline with Tween-80) is 96 % of control; the T/C (dose: 20.0 mg/kg/injection, schedule: Q01DX009 (ip), vehicle: saline with Tween-80) was 100 % of control.

Turning to `COC(=O)c1c(O)c(OC)c(-c2ccccc2)[nH]c1=O`, the T/C was 89 % of control under setting [8] and 89 % of control under setting [9].

With `COc1ccc2nc(C)cc(N/N=C/c3cccc(C)n3)c2c1`, the T/C (dose: 12.5 mg/kg/injection, schedule: Q01DX009 (ip), vehicle: Klucel (hydroxypropylcellulose) (HPC)) was 99 % of control and 104 % of control; the T/C (dose: 25.0 mg/kg/injection, schedule: Q01DX009 (ip), vehicle: Klucel (hydroxypropylcellulose) (HPC)) was 99 % of control and 105 % of control; the T/C under setting [10] was 113 % of control and 122 % of control.

On to `COc1cc2c(c(OC)c1OC)-c1cc3c(cc1[C@@H](OC(C)=O)[C@@H]1COC(=O)[C@H]1C2)OCO3`, for which the T/C by setting is: (dose: 1.25 mg/kg/injection, schedule: Q01DX009 (ip), vehicle: Klucel (hydroxypropylcellulose) (HPC)) 100 % of control; (dose: 2.5 mg/kg/injection, schedule: Q01DX009 (ip), vehicle: Klucel (hydroxypropylcellulose) (HPC)) 111 % of control; (dose: 5.0 mg/kg/injection, schedule: Q01DX009 (ip), vehicle: Klucel (hydroxypropylcellulose) (HPC)) 95 % of control; (dose: 10.0 mg/kg/injection, schedule: Q01DX009 (ip), vehicle: Klucel (hydroxypropylcellulose) (HPC)) 97 % of control.

Take `CC1=C(C)CC2(CC1)C(=O)C1(CCC(C)=C(C)C1)C2=O` (configuration not stated): the T/C reads like this: under setting [4], 93 % of control; under setting [5], 90 % of control; under setting [11], 99 % of control.

Turning to `CCCCCCCCCCCCN(C)S(=O)(=O)c1ccc(Cl)c(N)c1`, the T/C reads like this: (dose: 50.0 mg/kg/injection, schedule: Q04DX003 (ip), vehicle: saline with Tween-80) 95 % of control; (dose: 100.0 mg/kg/injection, schedule: Q04DX003 (ip), vehicle: saline with Tween-80) 100 % of control; (dose: 200.0 mg/kg/injection, schedule: Q04DX003 (ip), vehicle: saline with Tween-80) 95 % of control.

Take `CCOC(=O)CNC(=O)c1cc2c(cn1)[nH]c1ccccc12`: the T/C under setting [8] was 93 % of control and the T/C under setting [9] was 86 % of control.

On to `C=C1C(=O)OC2CC(C)C3C(OC(C)=O)CC(OC(C)=O)C3(C)CC12` (configuration not stated), for which the T/C is 99 % of control (dose: 12.5 mg/kg/injection, schedule: Q04DX002 (ip), vehicle: saline with Tween-80); 106 % of control under setting [6]; 103 % of control under setting [7].

Regarding `COc1ccc(/C(=N/SC)N(C)C)cc1`, the T/C is 103 % of control (dose: 3.75 mg/kg/injection, schedule: Q01DX005 (ip), vehicle: saline); 111 % of control (dose: 7.5 mg/kg/injection, schedule: Q01DX005 (ip), vehicle: saline); 104 % of control (dose: 15.0 mg/kg/injection, schedule: Q01DX005 (ip), vehicle: saline).

For `C/C(=N\O)C(C)(O)C(C)(C)C` (configuration not stated), the T/C was 103 % of control (dose: 25.0 mg/kg/injection, schedule: Q01DX009 (ip), vehicle: saline with Tween-80); 86 % of control under setting [4]; 93 % of control under setting [5].

For `CCOC(=O)c1ccc2c(c1)nc(-c1ccccn1)n2CCc1ccncc1`, the T/C under setting [12] was 103 % of control; the T/C under setting [13] was 102 % of control; the T/C under setting [14] is 102 % of control; the T/C (dose: 200.0 mg/kg/injection, schedule: Q01DX005 (ip), vehicle: Klucel (hydroxypropylcellulose) (HPC)) is 94 % of control.

Consider `O=C1C(=Cc2ccccc2)C(=O)c2ccccc21`, for which the T/C is 108 % of control under setting [6]; 109 % of control under setting [7]; 109 % of control under setting [1]; 107 % of control under setting [2]; 112 % of control under setting [3].

With `NNC(=O)c1ccccc1NC(=O)CSc1nc2ccccc2s1`, the T/C under setting [10] is 104 % of control; the T/C (dose: 100.0 mg/kg/injection, schedule: Q01DX009 (ip), vehicle: Klucel (hydroxypropylcellulose) (HPC)) was 101 % of control; the T/C (dose: 200.0 mg/kg/injection, schedule: Q01DX009 (ip), vehicle: Klucel (hydroxypropylcellulose) (HPC)) is 101 % of control.

With `CCCC1OCC(CC)C(CCC)O1` (configuration not stated), the T/C is, setting by setting: under setting [5], 100 % of control; (dose: 100.0 mg/kg/injection, schedule: Q04DX003 (ip), vehicle: saline sonified) 100 % of control; under setting [11], 100 % of control; (dose: 200.0 mg/kg/injection, schedule: Q04DX003 (ip), vehicle: saline sonified) 109 % of control; (dose: 400.0 mg/kg/injection, schedule: Q01DX009 (ip), vehicle: saline with Tween-80) 91 % of control; (dose: 400.0 mg/kg/injection, schedule: Q04DX003 (ip), vehicle: saline sonified) 109 % of control.

As for `O=c1[nH]cnc2cc([N+](=O)[O-])ccc12`, the T/C was 101 % of control (dose: 12.0 mg/kg/injection, schedule: Q01DX005 (ip), vehicle: Klucel (hydroxypropylcellulose) (HPC)); 101 % of control under setting [12]; 101 % of control and 106 % of control under setting [13]; 111 % of control under setting [14].

For `COC(=O)CC(=O)C(C(=O)OC)C(CCc1ccccc1)C(C(=O)CC(=O)OC)C(=O)OC` (configuration not stated), the T/C runs as follows: (dose: 25.0 mg/kg/injection, schedule: Q01DX001 (ip), vehicle: saline with Tween-80) 97 % of control; (dose: 50.0 mg/kg/injection, schedule: Q01DX001 (ip), vehicle: saline with Tween-80) 94 % of control; (dose: 100.0 mg/kg/injection, schedule: Q01DX001 (ip), vehicle: saline with Tween-80) 94 % of control.
